# Measured values published in article PMC8087158 (Angewandte Chemie (International ed. in English), 2021).
# Legend:
# Pf20S β5 [1] = assay: Hydrolysis of suc-LLVY-AMC by Pf20S, time courses of inhibition; assay type: biochemical, Plasmodium falciparum
# [2] = test system: polyubiquitinated proteins in Pf trophozoites; assay: Accumulation of polyubiquitinated proteins in parasites; assay type: cell-based, Plasmodium falciparum; details: 6-hour exposure, 1 μM
# [3] = test system: artemisinin-sensitive Pf Cam3.I^Rev; assay: Modified ring-stage survival assay, combination with DHA, isobologram; assay type: cell-based, Plasmodium falciparum; details: 3-h pulse of DHA, continuous TDI-8304 for further 69 h; parasitemia at 72 h
# [4] = test system: P. falciparum strain Pf 3D7; assay: Growth inhibition of erythrocytic stage P. falciparum Pf 3D7; assay type: cell-based, Plasmodium falciparum
# [5] = test system: P. falciparum lab strain Dd2; assay: Growth inhibition of Pf Dd2; assay type: cell-based, Plasmodium falciparum
# Pf Dd2β6A117D = assay: Growth inhibition of proteasome inhibitor-resistant Pf Dd2β6A117D; assay type: cell-based, Plasmodium falciparum; details: relative to Dd2
# [6] = test system: Pf strain 3663 (ART-sensitive); assay: Growth inhibition of Pf strain 3663; assay type: cell-based, Plasmodium falciparum
# [7] = test system: Pf strain HB3 (chloroquine-sensitive); assay: Growth inhibition of Pf strain HB3; assay type: cell-based, Plasmodium falciparum
# [8] = test system: artemisinin-resistant Pf Cam3.I^R539T; assay: Modified ring-stage survival assay, combination with DHA, isobologram; assay type: cell-based, Plasmodium falciparum; details: 3-h pulse of DHA, continuous TDI-8304 for further 69 h; parasitemia at 72 h
# Pf20S β5 [9] = assay: Blocking of MV151 labelling of Pf20S β5; assay type: binding, Plasmodium falciparum; details: with or without WLW-VS
# [10] = test system: P. falciparum Pf3D7^0087/N9; assay: Humanized mouse model of Pf infection, parasitemia; assay type: in vivo, NOD-SCID IL-2R-null mice transfused with human erythrocytes; details: s.c. 100 mg/kg b.i.d., days 3 – 6 post infection
# Pf Dd2β5A49S = assay: Growth inhibition of proteasome inhibitor-resistant Pf Dd2β5A49S; assay type: cell-based, Plasmodium falciparum; details: relative to Dd2
# [11] = test system: Pf strain 4884 (ART-resistant); assay: Growth inhibition of Pf strain 4884; assay type: cell-based, Plasmodium falciparum
compound,measurement,setting,value
O=C(NC1CCCC1)[C@@H]1CCCCOc2cccc(c2)C[C@H](N2CCCC2=O)C(=O)N[C@@H](CCN2CCOCC2)C(=O)N1 [TDI-8304],t1/2 half-life for the Pf20S:TDI-8304 complex,Pf20S β5 [1],14.4 min
same,Inhibition modality,Pf20S β5 [1]; induced-fit mechanism,time-dependent inhibition
same,Accumulation of polyubiquitinated proteins,[2],accumulation of polyubiquitinated proteins
same,Interaction with DHA (isobologram),[3],synergistic killing
same,"Potency (EC50) against P. falciparum Pf 3D7, in words",[4],highly potent
same,EC90,"[4]; strain not given, used as exposure threshold",29 nM
same,Potency against P. falciparum lab strain Dd2,[5],potent
same,Reduction in potency against Dd2β6A117D,Pf Dd2β6A117D,~ 18 fold
same,Activity against Pf strain 3663,[6],comparable activity
same,Activity against Pf strain HB3,[7],comparable activity
same,Interaction with DHA (isobologram),[8],synergistic killing
same,Blocking of labelling of Pf20S β5 by MV151,Pf20S β5 [9],dose-dependently blocked labelling
same,"Reduction of parasitemia, one mouse",[10],2 log10
same,EC50 against Dd2β5A49S compared with Dd2,Pf Dd2β5A49S,comparable
same,Activity against Pf strain 4884,[11],comparable activity
